We go through 40 molecules from patent US9751854B2 (Millennium Pharmaceuticals, Inc., priority 2014, dated 2017).

The structures appear in SMILES notation. Some results are limits rather than exact numbers.

The target in the assay is human VPS34 (Homo sapiens (Human), UniProt Q8NEB9). Put plainly: Human VPS34 enzyme assay (Adapta TR-FRET ADP detection). In kind it is biochemical. The note with it: IC50 range class.
Sequence of human VPS34 (Q8NEB9 whole entry): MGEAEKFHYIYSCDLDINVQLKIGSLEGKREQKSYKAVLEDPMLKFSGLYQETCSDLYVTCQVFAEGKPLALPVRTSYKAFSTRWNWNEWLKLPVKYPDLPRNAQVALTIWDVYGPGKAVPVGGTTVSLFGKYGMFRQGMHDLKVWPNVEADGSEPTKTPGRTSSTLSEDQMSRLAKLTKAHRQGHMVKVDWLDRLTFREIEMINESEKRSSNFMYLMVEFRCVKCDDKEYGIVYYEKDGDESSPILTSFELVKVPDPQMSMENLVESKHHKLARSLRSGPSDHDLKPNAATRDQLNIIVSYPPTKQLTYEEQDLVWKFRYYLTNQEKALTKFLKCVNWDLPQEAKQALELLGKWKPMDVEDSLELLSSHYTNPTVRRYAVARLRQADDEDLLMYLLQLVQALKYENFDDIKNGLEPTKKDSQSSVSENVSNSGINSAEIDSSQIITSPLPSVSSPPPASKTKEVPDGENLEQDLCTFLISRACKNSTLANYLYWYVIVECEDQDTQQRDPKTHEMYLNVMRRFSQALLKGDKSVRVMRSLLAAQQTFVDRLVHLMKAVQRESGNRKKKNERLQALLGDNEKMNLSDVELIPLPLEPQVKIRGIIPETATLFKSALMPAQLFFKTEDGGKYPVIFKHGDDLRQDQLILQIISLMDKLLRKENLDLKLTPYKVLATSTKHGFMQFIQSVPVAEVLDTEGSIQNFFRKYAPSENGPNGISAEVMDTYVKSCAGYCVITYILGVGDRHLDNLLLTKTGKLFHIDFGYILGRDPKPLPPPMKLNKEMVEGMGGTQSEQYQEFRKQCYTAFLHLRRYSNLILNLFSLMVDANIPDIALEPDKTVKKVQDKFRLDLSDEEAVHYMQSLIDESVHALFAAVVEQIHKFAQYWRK
The molecule `COc1ncc(-c2ccnc(Nc3ccnc(C)n3)c2)cc1C(=O)N(C)c1ccc(F)cc1F` [Compound I-252, N-(2,4-difluorophenyl)-6-methoxy-N-methyl-2′-[(2-methylpyrimidin-4-yl)amino]-3,4′-bipyridine-5-carboxamide] gave an IC50 of 10 to 50 nM. As for `CN(C(=O)c1cc(-c2ccnc(Nc3ccncn3)c2)cnc1N)C12CC(C1)C2` [Compound I-303, 6-amino-N-(bicyclo[1.1.1]pent-1-yl)-N-methyl-2′-(pyrimidin-4-ylamino)-3,4′-bipyridine-5-carboxamide], the IC50 lay in the range of 10 to 50 nM. The same measure for `COc1ncc(-c2ccnc(Nc3ccnc(C)n3)c2)cc1S(=O)(=O)NC1CCC1` [Compound I-224, N-cyclobutyl-6-methoxy-2′-[(2-methylpyrimidin-4-yl)amino]-3,4′-bipyridine-5-sulfonamide]: 10 to 50 nM.

`CC(=O)Nc1cc(-c2cnc(N(C)C)c(C(=O)NC34CC(C3)C4)c2)ccn1` [Compound I-283, 2′-Acetamido-N-(bicyclo[1.1.1]pent-1-yl)-6-(dimethylamino)-3,4′-bipyridine-5-carboxamide] displayed a half-inhibitory concentration (IC50) of 10 to 50 nM.

For `CC(=O)Nc1cc(-c2cnc(N)c(S(=O)(=O)NC34CC(C3)C4)c2)ccn1` [Compound I-11, N-[6-amino-5-(bicyclo[1.1.1]pent-1-ylsulfamoyl)-3,4′-bipyridin-2′-yl]acetamide], the IC50 was < 10 nM. In the case of `CC(=O)Nc1cc(-c2cnc(N)c(N3CCCN(C)S3(=O)=O)c2)ccn1` [Compound I-323, N-[6-amino-5-(6-methyl-1,1-dioxido-1,2,6-thiadiazinan-2-yl)-3,4′-bipyridin-2′-yl]acetamide] it was 10 to 50 nM. Take `CC(=O)Nc1cc(-c2cnc(Cl)c(NS(=O)(=O)c3ccc(Cl)cc3F)c2C)ccn1` [Compound I-399, N-(6-chloro-5-{[(4-chloro-2-fluorophenyl)sulfonyl]amino}-4-methyl-3,4′-bipyridin-2′-yl)acetamide]: the IC50 fell in the range of 10 to 50 nM.

On to `CC(=O)Nc1cc(-c2cnc(N)c(S(=O)(=O)NC3CCCCC3)c2)ccn1` [Compound I-101, N-[6-amino-5-(cyclohexylsulfamoyl)-3,4′-bipyridin-2′-yl]acetamide], for which the 50% inhibitory concentration (IC50) was < 10 nM. The same measure for `Cc1ncc(-c2ccnc(Nc3ccccn3)c2)cc1NS(=O)(=O)c1ccc(F)cc1F` [Compound I-297, 2,4-difluoro-N-[6-methyl-2′-(pyridin-2-ylamino)-3,4′-bipyridin-5-yl]benzenesulfonamide]: 10 to 50 nM; for `CC(=O)Nc1cc(-c2cnc(C)c(NS(=O)(=O)c3cccc(C(C)(C)C)c3)c2)ccn1` [Compound I-70]: < 10 nM; for `CC(=O)Nc1cc(-c2cncc(S(=O)(=O)NC(C)(C)C)c2)ccn1` [Compound I-443, N-[5-(tert-butylsulfamoyl)-3,4′-bipyridin-2′-yl]acetamide]: 10 to 50 nM. The same measure for `CC(=O)Nc1cc(-c2cnc(C)c(NS(=O)(=O)c3cccc(F)c3Cl)c2)ccn1` [Compound I-322, N-(5-{[(2-chloro-3-fluorophenyl)sulfonyl]amino}-6-methyl-3,4′-bipyridin-2′-yl)acetamide]: 10 to 50 nM. `CC(=O)Nc1cc(-c2cnc(N)c(C(=O)N3CCC(F)(F)C3)c2)ccn1` [Compound I-60, N-{6-amino-5-[(3,3-difluoropyrrolidin-1-yl)carbonyl]-3,4′-bipyridin-2′-yl}acetamide] registered an IC50 of 10 to 50 nM. The same measure for `CNc1ncc(-c2ccnc(NC(C)=O)c2)cc1C(=O)N(C)C` [Compound I-22, 2′-acetamido-N,N-dimethyl-6-(methylamino)-3,4′-bipyridine-5-carboxamide]: 10 to 50 nM; for `COC(=O)Nc1cc(-c2cnc(N)c(S(=O)(=O)N(C)C)c2)ccn1` [Compound I-171, Methyl [6-amino-5-(dimethylsulfamoyl)-3,4′-bipyridin-2′-yl]carbamate]: < 10 nM; for `Cc1c(-c2ccnc(Nc3ccnc(C4CC4)n3)c2)cnc(Cl)c1C(=O)N1CCC1` [Compound I-361, azetidin-1-yl(6-chloro-2′-((2-cyclopropylpyrimidin-4-yl)amino)-4-methyl-[3,4′-bipyridin]-5-yl)methanone]: 10 to 50 nM.

`CC(=O)Nc1cc(-c2cnc(C)c(NS(=O)(=O)N3CCC(F)(F)CC3)c2)ccn1` [Compound I-374, N-(5-{[(4,4-difluoropiperidin-1-yl)sulfonyl]amino}-6-methyl-3,4′-bipyridin-2′-yl)acetamide] showed a concentration for half-maximal inhibition (IC50) of 10 to 50 nM.

`CC(=O)Nc1cc(-c2cnc(N)c(C(=O)Nc3cccc(F)c3F)c2)ccn1` [Compound I-179, 2′-acetamido-6-amino-N-(2,3-difluorophenyl)-3,4′-bipyridine-5-carboxamide]: the IC50 was < 10 nM. As for `CC(=O)Nc1cc(-c2cncc(S(=O)(=O)Nc3ccccc3)c2)ccn1` [Compound I-459, N-[5-(phenylsulfamoyl)-3,4′-bipyridin-2′-yl]acetamide], the IC50 was in the range of 10 to 50 nM. Molecule `CC(=O)Nc1cc(-c2cnc(N)c(S(=O)(=O)Cc3ccc4ccccc4c3)c2)ccn1` [Compound I-3, N-{6-amino-5-[(2-naphthylmethyl)sulfonyl]-3,4′-bipyridin-2′-yl}acetamide] showed a half-maximal inhibitory concentration (IC50) of 50 to 100 nM.

`CC(=O)Nc1cc(-c2cnc3c(c2)CCN3)ccn1` [Compound I-67, N-[4-(2,3-dihydro-1H-pyrrolo[2,3-b]pyridin-5-yl)pyridin-2-yl]acetamide]: the IC50 lay within 50 to 100 nM. In the case of `CC(=O)Nc1cc(-c2cncc(N3CCCCS3(=O)=O)c2)ccn1` [Compound I-320, N-[5-(1,1-dioxido-1,2-thiazinan-2-yl)-3,4′-bipyridin-2′-yl]acetamide] it was 10 to 50 nM. The same measure for `Cc1nccc(Nc2cc(-c3cncc(OC4CCc5c(F)cccc54)c3)ccn2)n1` (stereo not shown) [Compound I-440, 5-[(4-fluoro-2,3-dihydro-1H-inden-1-yl)oxy]-N-(2-methylpyrimidin-4-yl)-3,4′-bipyridin-2′-amine]: > 100 nM. The same measure for `CC(=O)Nc1cc(-c2cnc(C#N)c(NS(=O)(=O)c3ccc(F)cc3F)c2)ccn1` [Compound I-411, N-(6-cyano-5-{[(2,4-difluorophenyl)sulfonyl]amino}-3,4′-bipyridin-2′-yl)acetamide]: < 10 nM. Regarding `Cc1c(-c2ccnc(Nc3ccnc(C4CC4)n3)c2)cnc(Cl)c1N` [Compound I-355, 6-chloro-N-2-′-(2-cyclopropylpyrimidin-4-yl)-4-methyl-3,4′-bipyridine-2′,5-diamine], the half-maximal inhibitory concentration (IC50) lay in the range of 10 to 50 nM. In the case of `CC(=O)Nc1cc(-c2cncc(N(C)C(=O)c3ccc(F)cc3F)c2)ccn1` [Compound I-397, N-(2′-acetamido-3,4′-bipyridin-5-yl)-2,4-difluoro-N-methylbenzamide] it was 50 to 100 nM; in that of `CC(=O)Nc1cc(-c2cnc(C)c(NS(=O)(=O)c3ccc(C#N)cc3F)c2)ccn1` [Compound I-356, N-(5-{[(4-cyano-2-fluorophenyl)sulfonyl]amino}-6-methyl-3,4′-bipyridin-2′-yl)acetamide], < 10 nM. The same measure for `CNc1ncc(-c2ccnc(NC(C)=O)c2)cc1N(CC1CC1)S(C)(=O)=O` [Compound I-141]: < 10 nM; for `CC(=O)Nc1cc(-c2cnc(C)c(NS(=O)(=O)c3ccc(OC(F)(F)F)cc3Cl)c2)ccn1` [Compound I-113, N-[5-({[2-chloro-4-(trifluoromethoxy)phenyl]sulfonyl}amino)-6-methyl-3,4′-bipyridin-2′-yl]acetamide]: < 10 nM. `CC(=O)Nc1cc(-c2cnc(C)c(N3CCCN(C)S3(=O)=O)c2)ccn1` [Compound I-343] displayed an IC50 of 10 to 50 nM. Consider `Cc1ncc(-c2ccnc(NC(=O)C3CC3(F)F)c2)cc1NS(=O)(=O)c1ccc(Cl)cc1F` (stereo not shown) [Compound I-441, N-(5-{[(4-chloro-2-fluorophenyl)sulfonyl]amino}-6-methyl-3,4′-bipyridin-2′-yl)-2,2-difluorocyclopropanecarboxamide], for which the half-maximal inhibitory concentration (IC50) is < 10 nM. In the case of `CC(=O)Nc1cc(-c2cnc(C)c(NS(=O)(=O)N3CCN(C)CC3)c2)ccn1` [Compound I-269, N-(6-methyl-5-{[(4-methylpiperazin-1-yl)sulfonyl]amino}-3,4′-bipyridin-2′-yl)acetamide] it was 10 to 50 nM; in that of `Cc1nccc(Nc2cc(-c3cnc(Cl)c(S(=O)(=O)NC4CCC4)c3)ccn2)n1` [Compound I-215, 6-chloro-N-cyclobutyl-2′-((2-methylpyrimidin-4-yl)amino)-[3,4′-bipyridine]-5-sulfonamide], 10 to 50 nM. For `CC(=O)Nc1cc(-c2cnc(N)c(C(=O)NC(=N)N)c2)ccn1` [Compound I-409, 2′-acetamido-6-amino-N-carbamimidoyl-3,4′-bipyridine-5-carboxamide], the concentration for half-maximal inhibition (IC50) is > 100 nM. `CC(=O)Nc1cc(-c2cncc(S(=O)(=O)NCc3ccccc3)c2)ccn1` [Compound I-321, N-[5-(benzylsulfamoyl)-3,4′-bipyridin-2′-yl]acetamide] came in with an IC50 of 50 to 100 nM.

Molecule `CC(=O)Nc1cc(-c2cnc(Cl)c(NS(=O)(=O)c3ccc(C#N)cc3Cl)c2C)ccn1` [Compound I-362, N-(6-chloro-5-{[(2-chloro-4-cyanophenyl)sulfonyl]amino}-4-methyl-3,4′-bipyridin-2′-yl)acetamide] registered an IC50 of 10 to 50 nM. The same measure for `CC(=O)Nc1cc(-c2cnc(C)c(NS(=O)(=O)c3ccc(C(C)(C)C)cc3)c2)ccn1` [Compound I-131, N-(5-{[(4-tert-butylphenyl)sulfonyl]amino}-6-methyl-3,4′-bipyridin-2′-yl)acetamide]: < 10 nM.

On to `CC(=O)Nc1cc(-c2cnc(Cl)c(N3CCCNS3(=O)=O)c2C)ccn1` [Compound I-473, N-[6-chloro-5-(1,1-dioxido-1,2,6-thiadiazinan-2-yl)-4-methyl-3,4′-bipyridin-2′-yl]acetamide], for which the IC50 was in the range of 10 to 50 nM. In the case of `CC(=O)Nc1cc(-c2cncc(S(C)(=O)=O)c2)ccn1` [Compound I-51, N-[5-(methylsulfonyl)-3,4′-bipyridin-2′-yl]acetamide] it was 50 to 100 nM; in that of `Cc1nccc(Nc2cc(-c3cnc(C)c(OCCO)c3)ccn2)n1` [Compound I-424, 2-({6-methyl-2′-[(2-methylpyrimidin-4-yl)amino]-3,4′-bipyridin-5-yl}oxy)ethanol], 10 to 50 nM.
